How the values were obtained:
[1] = tested on: LCLC-103H (Non-Small Cell Lung Carcinoma); experiment: combination Emax (second highest fraction inhibited in the dose matrix, 72 h); higher = more inhibition; extreme values may be limits of the assay
Procedure, shortened: (§1)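 After 24 hours at 37°C and 5% CO2 in 1536-well plates, cells in DMEM/F12 or RPMI plus 10% FBS received two-drug dose matrices for 72 hours. Viability came from CellTiter-Glo 2.0 luminescence and was scaled as inhibition, anchored at 0 by vehicle wells and at 1 by blank wells. Combination Emax is taken as the second-highest inhibition in the matrix, and Bliss excess as the observed combination effect less EA + EB − EA·EB, with EA and EB the single-agent effects.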

[2] = tested on: MONO-MAC-6 (Acute Myeloid Leukemia); experiment: as above
Procedure, shortened: as §1

NB1 (Neuroblastoma) [3] = experiment: as above
Procedure, shortened: as §1

[4] = tested on: C-33-A (Cervical Carcinoma); experiment: Bliss excess, mean over the matrix (fraction); higher = more synergy
Procedure, shortened: as §1

[5] = tested on: SNU-423 (Hepatocellular Carcinoma); experiment: as above
Procedure, shortened: as §1

GAK (Melanoma) = experiment: as above
Procedure, shortened: as §1

[6] = tested on: MM1S (Plasma Cell Myeloma); experiment: as above
Procedure, shortened: as §1

NCI-H2373 (Mesothelioma) = experiment: as above
Procedure, shortened: as §1

[7] = tested on: NAMALWA (Burkitt's Lymphoma); experiment: as above
Procedure, shortened: as §1

[8] = tested on: MDA-MB-415 (Breast Carcinoma); experiment: as above
Procedure, shortened: as §1

[9] = tested on: LCLC-103H (Non-Small Cell Lung Carcinoma); experiment: as above
Procedure, shortened: as §1

KALS-1 (Glioblastoma) = experiment: as above
Procedure, shortened: as §1

[10] = tested on: KP-4 (Pancreatic Carcinoma); experiment: as above
Procedure, shortened: as §1

[11] = tested on: SCC-4 (Oral Cavity Carcinoma); experiment: as above
Procedure, shortened: as §1

[12] = tested on: NCI-H1963 (Small Cell Lung Carcinoma); experiment: as above
Procedure, shortened: as §1

[13] = tested on: P30-OHK (B-Lymphoblastic Leukemia); experiment: as above
Procedure, shortened: as §1

[14] = tested on: ZR-75-30 (Breast Carcinoma); experiment: as above
Procedure, shortened: as §1

[15] = tested on: BxPC-3 (Pancreatic Carcinoma); experiment: as above
Procedure, shortened: as §1

[16] = tested on: NCI-H1876 (Small Cell Lung Carcinoma); experiment: as above
Procedure, shortened: as §1

NB1 (Neuroblastoma) [17] = experiment: as above
Procedure, shortened: as §1
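Throughout, for Bliss excess, mean over the matrix: after 72 h of two-drug dosing.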

| SMILES | combination Emax [1] | combination Emax [2] | combination Emax (NB1 (Neuroblastoma) [3]) | Bliss excess [4] | Bliss excess [5] | Bliss excess (GAK (Melanoma)) | Bliss excess [6] | Bliss excess (NCI-H2373 (Mesothelioma)) | Bliss excess [7] | Bliss excess [8] | Bliss excess [9] | Bliss excess (KALS-1 (Glioblastoma)) | Bliss excess [10] | Bliss excess [11] | Bliss excess [12] | Bliss excess [13] | Bliss excess [14] | Bliss excess [15] | Bliss excess [16] | Bliss excess (NB1 (Neuroblastoma) [17]) |
| --- | --- | --- | --- | --- | --- | --- | --- | --- | --- | --- | --- | --- | --- | --- | --- | --- | --- | --- | --- | --- |
| COc1nnc2ccc(N3CCC(c4ccc(OCCN5CCN(C)C(=O)[C@H]5C)cc4)CC3)nn12 [AZD5153] + C[C@@H]1COCCN1C2=NC(=NC(=C2)C3(CC3)[S@](=N)(=O)C)C4=C5C=CNC5=NC=C4 [AZD6738] (first compound max 1 µM, 7x7, partner max 10 µM) | 0.492 | 1 | 0.744 | 0.0515 | -0.0023 | -0.0005 | 0.0719 | -0.0263 | -0.0799 | -0.0009 | 0.0525 | -0.0314 | -0.0217 | -0.0283 | -0.0228 | -0.0012 | 0.019 | -0.0013 | 0.089 | 0.0095 |
| COc1nnc2ccc(N3CCC(c4ccc(OCCN5CCN(C)C(=O)[C@H]5C)cc4)CC3)nn12 [AZD5153] + Cc1c2c(nn1C)CSCc1cc(n(C)n1)CSc1cc(c3ccccc3c1)OCCCc1c(C(=O)O)n(C)c3c-2c(Cl)ccc13 [AZD5991] (first compound max 1 µM, 7x7, partner max 1 µM) | 0.414 | 1 | 0.52 | 0.0124 | -0.0227 | -0.0183 | 0.15 | -0.0104 | -0.0536 | 0.031 | 0.0179 | 0.0141 | -0.0231 | -0.0208 | 0.0125 | -0.0042 | 0.0034 | -0.015 | 0.157 | -0.0211 |
| COc1nnc2ccc(N3CCC(c4ccc(OCCN5CCN(C)C(=O)[C@H]5C)cc4)CC3)nn12 [AZD5153] + Cn1cnc2c(F)c(Nc3ccc(Br)cc3Cl)c(C(=O)NOCCO)cc21 [Selumetinib] (first compound max 1 µM, 7x7, partner max 10 µM) | 0.454 | 0.986 | 0.445 | 0.0725 | 0.0059 | -0.0532 | 0.109 | -0.0666 | -0.0375 | 0.0512 | 0.0325 | -0.0421 | 0.0157 | -0.0332 | -0.0176 | -0.0004 | -0.0133 | -0.0864 | -0.0499 | -0.0454 |
| Cc1c2c(nn1C)CSCc1cc(n(C)n1)CSc1cc(c3ccccc3c1)OCCCc1c(C(=O)O)n(C)c3c-2c(Cl)ccc13 [AZD5991] + C1CN(CCC1(C(=O)N[C@@H](CCO)C2=CC=C(C=C2)Cl)N)C3=NC=NC4=C3C=CN4 [Capivasertib] (first compound max 1 µM, 7x7, partner max 3 µM) | 0.242 | 1 | 0.507 | 0.0063 | -0.0822 | -0.029 | -0.0098 | -0.0671 | 0.0008 | 0.0144 | -0.0025 | 0.0491 | -0.005 | 0.0358 | 0.0377 | 0.0273 | -0.0119 | -0.0005 | 0.0708 | -0.0186 |
| Cc1c2c(nn1C)CSCc1cc(n(C)n1)CSc1cc(c3ccccc3c1)OCCCc1c(C(=O)O)n(C)c3c-2c(Cl)ccc13 [AZD5991] + C=CCn1c(=O)c2cnc(Nc3ccc(N4CCN(C)CC4)cc3)nc2n1-c1cccc(C(C)(C)O)n1 [AZD1775] (first compound max 1 µM, partner max 1 µM) | 0.523 | 1 | 0.936 | -0.0556 | -0.0976 | -0.0077 | 0.0547 | -0.0079 | 0.0017 | 0.0011 | 0.0101 | -0.0169 | -0.0245 | 0.0917 | 0.0006 | 0.0077 | 0.0376 | -0.0125 | -0.0292 | -0.0156 |
| Cc1c2c(nn1C)CSCc1cc(n(C)n1)CSc1cc(c3ccccc3c1)OCCCc1c(C(=O)O)n(C)c3c-2c(Cl)ccc13 [AZD5991] + CC1(C)CCC(CN2CCN(c3ccc(C(=O)NS(=O)(=O)c4ccc(NCC5CCOCC5)c([N+](=O)[O-])c4)c(Oc4cnc5[nH]ccc5c4)c3)CC2)=C(c2ccc(Cl)cc2)C1 [Venetoclax] (first compound max 1 µM, 7x7, partner max 1 µM) | 0.145 | 1 | 0.535 | -0.006 | -0.0736 | 0.0208 | 0.0483 | -0.0391 | -0.0172 | 0.0637 | -0.0347 | -0.0206 | -0.0563 | -0.0365 | 0.119 | 0.285 | 0.0527 | 0.0411 | 0.12 | -0.0178 |
| Cc1c2c(nn1C)CSCc1cc(n(C)n1)CSc1cc(c3ccccc3c1)OCCCc1c(C(=O)O)n(C)c3c-2c(Cl)ccc13 [AZD5991] + CN(C)CCCOc1ccc(-c2ccc3ncc4c(c3c2)n(C2CCOCC2)c(=O)n4C)cn1 [AZD0156] (first compound max 1 µM, 7x7, partner max 1 µM) | 0.375 | 1 | 0.278 | -0.0089 | -0.0259 | 0.0152 | 0.0391 | -0.0069 | -0.0079 | -0.0183 | 0.0401 | 0.0151 | 0.0187 | -0.0232 | 0.0225 | -0.0042 | -0.0128 | 0.0229 | 0.0541 | -0.0522 |
| Cc1c2c(nn1C)CSCc1cc(n(C)n1)CSc1cc(c3ccccc3c1)OCCCc1c(C(=O)O)n(C)c3c-2c(Cl)ccc13 [AZD5991] + C[C@@H]1COCCN1C2=NC(=NC(=C2)C3(CC3)[S@](=N)(=O)C)C4=C5C=CNC5=NC=C4 [AZD6738] (first compound max 1 µM, 7x7, partner max 10 µM) | 0.531 | 1 | 0.931 | -0.0501 | 0.0026 | 0.0034 | 0.102 | 0.0293 | -0.0012 | 0.0328 | 0.0224 | 0.0165 | 0.0389 | -0.0003 | 0.0858 | 0.0592 | 0.0285 | -0.01 | 0.0961 | 0.0343 |
| Cc1c2c(nn1C)CSCc1cc(n(C)n1)CSc1cc(c3ccccc3c1)OCCCc1c(C(=O)O)n(C)c3c-2c(Cl)ccc13 [AZD5991] + C[C@@H](Nc1cc(F)cc(F)c1)c1cc(C(=O)N(C)C)cc2c(=O)cc(N3CCOCC3)oc12 [AZD8186] (first compound max 1 µM, 7x7, partner max 3 µM) | 0.352 | 1 | 0.26 | -0.0463 | -0.0326 | 0.0257 | 0.0187 | -0.0288 | 0.0021 | 0.0416 | 0.0125 | 0.012 | -0.0235 | 0.0116 | 0.0155 | 0.0058 | 0.0179 | -0.0059 | 0.0156 | -0.0275 |
| Cc1c2c(nn1C)CSCc1cc(n(C)n1)CSc1cc(c3ccccc3c1)OCCCc1c(C(=O)O)n(C)c3c-2c(Cl)ccc13 [AZD5991] + Cc1cc2ncnn2cc1Nc1ncc2c(n1)n(C1CCOCC1)c(=O)n2C [AZD7648] (first compound max 1 µM, 7x7, partner max 10 µM) | 0.363 | 1 | 0.211 | -0.0586 | -0.0768 | -0.021 | 0.0085 | -0.015 | -0.0286 | -0.0924 | -0.0543 | -0.008 | -0.0261 | -0.0269 | -0.0169 | -0.0222 | -0.0134 | -0.0007 | -0.0266 | -0.0197 |
| Cc1c2c(nn1C)CSCc1cc(n(C)n1)CSc1cc(c3ccccc3c1)OCCCc1c(C(=O)O)n(C)c3c-2c(Cl)ccc13 [AZD5991] + Cn1cnc2c(F)c(Nc3ccc(Br)cc3Cl)c(C(=O)NOCCO)cc21 [Selumetinib] (first compound max 1 µM, 7x7, partner max 3 µM) | 0.176 | 1 | 0.238 | 0.0077 | -0.0599 | -0.0093 | 0.0828 | -0.0345 | -0.0172 | -0.0419 | -0.0774 | -0.0897 | -0.0165 | 0.0478 | 0.0518 | 0.0011 | -0.0609 | 0.0457 | 0.0841 | -0.0181 |
| C[C@@H]1COCCN1c1cc(C2([S@](C)(=N)=O)CC2)nc(-c2ccnc3[nH]ccc23)n1 [AZD6738] + O=C(c1cc(Cc2n[nH]c(=O)c3ccccc23)ccc1F)N1CCN(C(=O)C2CC2)CC1 [Olaparib] (first compound max 10 µM, 7x7, partner max 10 µM) | 0.504 | 0.948 | 0.772 | -0.0049 | -0.0005 | 0.0019 | -0.0388 | 0.0165 | -0.0187 | 0.0239 | 0.0482 | 0.0028 | 0.113 | 0.059 | 0.0725 | 0.0469 | -0.0408 | 0.0231 | -0.005 | -0.058 |
| Cc1cc2ncnn2cc1Nc1ncc2c(n1)n(C1CCOCC1)c(=O)n2C [AZD7648] + C=CCn1c(=O)c2cnc(Nc3ccc(N4CCN(C)CC4)cc3)nc2n1-c1cccc(C(C)(C)O)n1 [AZD1775] (first compound max 10 µM, partner max 1 µM) | 0.552 | 0.909 | 0.847 | 0.0409 | -0.0257 | -0.0275 | -0.0401 | -0.0322 | -0.0101 | -0.027 | 0.002 | -0.0051 | 0.0217 | -0.0714 | 0.0345 | 0.0014 | -0.0678 | -0.0502 | 0.0508 | -0.0015 |
| Cc1cc2ncnn2cc1Nc1ncc2c(n1)n(C1CCOCC1)c(=O)n2C [AZD7648] + CCN(CCO)CCCOc1ccc2c(Nc3cc(CC(=O)Nc4cccc(F)c4)[nH]n3)ncnc2c1 [AZD2811] (first compound max 10 µM, 7x7, partner max 1 µM) | 0.377 | 0.787 | 0.629 | 0.045 | -0.0408 | -0.035 | 0.0333 | -0.034 | 0.114 | -0.002 | -0.026 | 0.0068 | -0.0425 | -0.0526 | -0.0146 | -0.0267 | -0.0449 | -0.0052 | -0.074 | -0.0026 |

— the supplement of paper PMC11061612
